Legend:
[1] = molecular target: T1, AXL (Homo sapiens, UniProt P30530); experiment: AXL autophosphorylation ELISA in A-172 cells; format: cell-based; details: Table 3 Cellular Activities, Gas6-stimulated, phospho-AXL ELISA
T1 construct: endogenous in cells; host or cells: A-172 glioblastoma cells (ATCC #CRL-1620)
T1 sequence (P30530 26-894): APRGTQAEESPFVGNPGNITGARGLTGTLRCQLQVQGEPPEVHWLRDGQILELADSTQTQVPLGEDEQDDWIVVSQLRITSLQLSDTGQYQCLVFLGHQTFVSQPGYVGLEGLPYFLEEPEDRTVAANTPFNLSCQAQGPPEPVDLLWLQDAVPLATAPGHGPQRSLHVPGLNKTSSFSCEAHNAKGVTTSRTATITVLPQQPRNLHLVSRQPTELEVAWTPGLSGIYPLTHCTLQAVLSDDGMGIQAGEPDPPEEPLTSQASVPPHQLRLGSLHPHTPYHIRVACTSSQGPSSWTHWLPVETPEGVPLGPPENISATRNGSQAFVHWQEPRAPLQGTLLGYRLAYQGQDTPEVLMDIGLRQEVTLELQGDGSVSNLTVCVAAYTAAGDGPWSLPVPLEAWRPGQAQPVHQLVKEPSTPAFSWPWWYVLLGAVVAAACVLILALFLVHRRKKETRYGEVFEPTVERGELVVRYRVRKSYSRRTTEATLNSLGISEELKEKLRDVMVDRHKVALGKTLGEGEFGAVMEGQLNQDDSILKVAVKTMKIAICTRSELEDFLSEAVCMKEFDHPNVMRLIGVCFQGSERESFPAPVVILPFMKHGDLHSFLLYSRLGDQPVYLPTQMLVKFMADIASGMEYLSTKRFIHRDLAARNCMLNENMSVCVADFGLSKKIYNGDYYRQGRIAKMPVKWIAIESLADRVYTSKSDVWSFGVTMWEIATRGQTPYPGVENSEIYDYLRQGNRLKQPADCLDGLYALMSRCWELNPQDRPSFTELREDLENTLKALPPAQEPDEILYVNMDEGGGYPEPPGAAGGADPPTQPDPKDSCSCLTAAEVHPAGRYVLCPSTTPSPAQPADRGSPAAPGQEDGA
How it was run: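 Phospho-AXL in lysates measured by ELISA after Gas6 stimulation (1 μg/mL, 15 min) of A-172 cells pre-incubated 1 h with an 8-point compound dilution series in 0.3% DMSO after 24 h serum starvation. IC50 by 4-parameter logistic fit, with DMSO-treated and reference-inhibitor wells as 100% and 0% activity.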

[2] = molecular target: T2, Human AXL (Homo sapiens, UniProt P30530); experiment: Human AXL kinase assay (HTRF KinEase); format: biochemical; details: Table 2 Biological Activities, ATP at Km (1.0 μM)
T2 construct: Human AXL (residues 464-885; CarnaBio, 1 ng/ well); purchased CarnaBio
T2 sequence (P30530 464-885 isoform P30530-2): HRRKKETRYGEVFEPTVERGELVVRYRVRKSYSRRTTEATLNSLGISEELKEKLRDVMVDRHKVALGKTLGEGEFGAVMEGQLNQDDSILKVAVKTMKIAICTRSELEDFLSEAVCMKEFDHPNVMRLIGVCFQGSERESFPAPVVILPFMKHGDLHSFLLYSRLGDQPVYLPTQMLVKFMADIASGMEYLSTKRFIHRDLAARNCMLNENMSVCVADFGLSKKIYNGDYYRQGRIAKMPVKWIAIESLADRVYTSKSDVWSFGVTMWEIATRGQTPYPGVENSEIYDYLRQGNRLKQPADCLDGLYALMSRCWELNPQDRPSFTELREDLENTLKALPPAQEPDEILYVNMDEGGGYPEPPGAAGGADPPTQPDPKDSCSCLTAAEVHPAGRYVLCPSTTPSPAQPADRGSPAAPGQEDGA
Method: Kinase activity and compound inhibition were investigated using the HTRF® KinEase assay (Cisbio Cat #62TKOPEB) per manufacturer's instructions. In short, compounds were delivered in 300 nL volumes at 10 different concentrations in DMSO (3% final) to empty 384-well assay plates (Corning cat #3824). A mixture of enzyme, 1 μM biotynlated peptide substrate, and buffer in 10 μL volume was added. The assay was started upon the addition of ATP (at Km). The 10 μL reaction was incubated at room temperature. The reaction was stopped upon the addition of detection buffer containing streptavidin-XL665 (5 μL) and TK antibody-Eu3+ (5 μL). After a 60 min incubation at room temperature, the fluorescence at 665 nm and 620 nm was read on an Envision microplate reader (Perkin Elmer). Kinase activity normalized to DMSO (100% activity) and reference compound at 1 μM and (0% activity) was calculated using the fluorescence ratio […]. IC50 values were calculated by nonlinear regression analysis using a 4-parameter logistic curve fit in ActivityBase XE (IDBS).
Human AXL (residues 464-885; CarnaBio, 1 ng/ well) was incubated with enzymatic buffer (Cisbio) supplemented with 5 mM MgCl2, 1 mM DTT, and Supplemental Enzymatic Buffer (SEB; Cisbio). The mixture was added to the pre-plated compounds. The reaction was initiated upon addition of ATP at Km (1.0 μM). The reaction was incubated at room temperature for 50 min and stopped upon the addition of SA-XL665 and TK-antibody both diluted in EDTA-containing kinase detection buffer (Cisbio). The kinase activity was calculated as stated above and the IC50 values were reported.

IC50 [1] [nM] | IC50 [2] [nM] | Structure (SMILES)
≤ 100 | ≤ 100 | COCCOc1cc2nccc(Oc3ccc(NC(=O)c4ccc(C)n(-c5ccc(F)cn5)c4=O)cc3F)c2nc1OC [Compound 50, N-[3-Fluoro-4-[[6-methoxy-7-(2-methoxyethoxy)-1,5-naphthyridin-4-yl]oxy]phenyl]-1-(5-fluoropyridin-2-yl)-6-methyl-2-oxopyridine-3-carboxamide]
≤ 100 | ≤ 100 | COc1cc2nccc(Oc3ccc(NC(=O)c4c(C)ncc(-c5ccccn5)c4O)cc3F)c2nc1OC [Compound 69, N-[4-[(6,7-Dimethoxy-1,5-naphthyridin-4-yl)oxy]-3-fluorophenyl]-4-hydroxy-2-methyl-5-pyridin-2-ylpyridine-3-carboxamide]
